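All cell lines were grown in 96-well plates and treated with compound for 48 hours. GI50 = concentration required for 50% inhibition of growth.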 Active and inactive are the calls of the source. No stated cut-off is given here; in the data, active = GI50 up to about 1.1 µM and inactive = higher. Bounds are passed on as bounds.

Test systems include A549; ACHN; HL-60; NCI-H460; OVCAR-8; RXF 393; SK-MEL-28; SK-MEL-5; SK-OV-3; SNB-75; SW-620; U-251; UO-31.
Holding throughout (assay): NCI tumour cell line growth inhibition, 48 h

For the compound `[O-]c1c2c(nn1-c1ccccc1)c1ccccc1c[n+]2Cc1ccccc1`, the GI50 with A549 was > 100 µM (inactive); with ACHN, > 100 µM (inactive); in the assay with HL-60 it was > 100 µM (inactive); in the assay on NCI-H460 it was > 100 µM (inactive); with OVCAR-8 it was > 100 µM (inactive); in the assay with RXF 393 it was 0.13 µM (active). Also, the GI50 in the assay on SK-MEL-28 was > 100 µM (inactive); in the assay with SK-MEL-5, > 100 µM (inactive); in the assay with SK-OV-3, > 100 µM (inactive); in the assay on SNB-75, 50.4 µM (inactive); in the assay with SW-620, > 100 µM (inactive); in the assay with U-251 it was > 100 µM (inactive). The GI50 with UO-31 was > 100 µM (inactive).
Turning to `C[N+](C)(C)CC1CCCCC1=O` (stereo not drawn), the GI50 in the assay with A549 is > 100 µM (inactive); with ACHN, 16.4 µM (inactive); with HL-60, 13.9 µM (inactive); in the assay on NCI-H460, 55.3 µM (inactive); in the assay on OVCAR-8, 19.2 µM (inactive); in the assay on RXF 393, 18.4 µM (inactive). Besides, the GI50 in the assay on SK-MEL-28 is 17.3 µM (inactive); with SK-MEL-5 it was 25.2 µM (inactive); in the assay on SK-OV-3, > 100 µM (inactive); with SNB-75 it was 20.5 µM (inactive); in the assay on SW-620, 8.49 µM (inactive); in the assay with U-251 it was > 100 µM (inactive). The GI50 in the assay on UO-31 is > 100 µM (inactive).
Consider `C[N+]1(CCNP(=S)(NCC[N+]2(C)Cc3c(ccc4c3OCO4)C3C2c2cc4c(cc2C[C@@H]3O)OCO4)NCC[N+]2(C)Cc3c(ccc4c3OCO4)C3C2c2cc4c(cc2C[C@@H]3O)OCO4)Cc2c(ccc3c2OCO3)C2C1c1cc3c(cc1C[C@H]2O)OCO3` (stereo partly drawn), for which the GI50 with A549, in the assay on ACHN, in the assay on HL-60, with NCI-H460, in the assay on OVCAR-8 and in the assay with RXF 393 was < 0.00191 µM (active) throughout. The GI50 with SK-MEL-28, in the assay on SK-MEL-5, in the assay on SK-OV-3, with SNB-75, in the assay with SW-620 and with U-251 was < 0.00191 µM (active) throughout. In the assay on UO-31, the GI50 is < 0.00191 µM (active).
Regarding `CCCCCCCCCCCCCCCCCC(CCCCCCCCCCCCCCCCC)OP(=O)(O)O`, the GI50 in the assay with A549, with ACHN, in the assay on HL-60, in the assay on NCI-H460, in the assay on OVCAR-8 and in the assay with RXF 393 was > 100 µM (inactive) throughout. For the same compound, the GI50 in the assay on SK-MEL-28, with SK-MEL-5, in the assay on SK-OV-3, in the assay on SNB-75, with SW-620 and in the assay with U-251 was > 100 µM (inactive) in each case. In addition, the GI50 with UO-31 is > 100 µM (inactive).
For `CC1=CC[C@@H](C(C)(C)O)C[C@@H]1O`, the GI50 is > 5000 µM (inactive) in the assay on A549; > 5000 µM (inactive) in the assay with ACHN; 3940 µM (inactive) in the assay on HL-60; > 5000 µM (inactive) with NCI-H460; > 5000 µM (inactive) in the assay with OVCAR-8; > 5000 µM (inactive) in the assay with RXF 393. The GI50 in the assay on SK-MEL-28, with SK-MEL-5, in the assay with SK-OV-3, with SNB-75, in the assay with SW-620 and with U-251 was > 5000 µM (inactive) in each case. The GI50 in the assay with UO-31 was > 5000 µM (inactive).
Turning to `Cc1ccc(NC(=O)CCc2cc(C(C)(C)C)nc(S)n2)cc1C`, the GI50 with A549, with ACHN, in the assay with HL-60, with NCI-H460, with OVCAR-8 and in the assay on RXF 393 was > 100 µM (inactive) throughout. Besides, the GI50 in the assay with SK-MEL-28, in the assay on SK-MEL-5, in the assay on SK-OV-3, in the assay on SNB-75, in the assay with SW-620 and in the assay on U-251 was > 100 µM (inactive) in each case. For the same compound, in the assay with UO-31, the GI50 was > 100 µM (inactive).

Source of the values: ChEMBL document CHEMBL1201862, “PubChem BioAssay data set” (2004).
